# Strand notation (5' to 3'): a small letter for the sugar, then the base; units joined by * are phosphorothioate-linked, units joined directly phosphodiester-linked; [ ] holds rarer units or linkages, { } end groups; capitals alone tell only the bases. k = constrained ethyl (cEt); [5mC] = 5-methylcytosine; d = 2'-deoxy (DNA)
# Tested on: human SMAD7 mRNA
# Test: Antisense inhibition of human SMAD7 mRNA expression in Hep3B cells by 3-10-3 cEt gapmers, 10,000 nM, electroporation (Example 2)
# Format: cell-based
# Details: Hep3B cells, 10,000 nM antisense oligonucleotide, electroporation, approximately 24 hours, RT-PCR primer probe set RTS5062, relative to untreated control cells
# Method in brief: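 SMAD7 mRNA was measured by real-time PCR (RTS5062) with RiboGreen total-RNA normalization, about 24 h after 10,000 nM gapmer was delivered by electroporation into Hep3B cells at 20,000 per well. Gapmers were 16-mer 3-10-3 cEt, fully phosphorothioate; values are % inhibition versus untreated controls.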
row,Substance,% Inhibition [%]
1,800056 (antisense kT*kG*k[5mC]*dT*dA*dA*dT*dA*dA*dA*d[5mC]*dT*dT*kG*kT*kG) [compound 800056],7
2,798925 (kA*kG*kT*dA*dG*dT*dT*dT*dG*dA*dA*dG*dT*kG*kT*kG; antisense) [compound 798925],0
3,790513 (k[5mC]*kA*k[5mC]*d[5mC]*dA*dG*d[5mC]*dT*dG*dA*d[5mC]*dT*d[5mC]*kT*kT*kG; antisense) [compound 790513],10
4,799958 (antisense kG*kT*kG*dG*dA*dG*dA*dG*dT*dG*d[5mC]*dT*dG*k[5mC]*kA*k[5mC]) [compound 799958],23
5,799911 (antisense kA*kG*k[5mC]*d[5mC]*dA*dA*d[5mC]*dT*d[5mC]*d[5mC]*dA*dT*dT*k[5mC]*kA*kT) [compound 799911],0

# Same assay, conditions: Hep3B cells, electroporation with 10,000 nM antisense oligonucleotide, approximately 24 hours, RTS5062, percent inhibition of SMAD7 mRNA relative to untreated control cells
row,Substance,% Inhibition [%]
1,799843 (antisense kG*kG*kA*dG*dG*dA*dG*dG*d[5mC]*dA*dA*dA*dT*kT*k[5mC]*kA) [compound 799843],42
2,799274 (antisense kT*kT*kA*dA*dT*d[5mC]*dA*dT*dT*dA*d[5mC]*dT*d[5mC]*kG*kA*kG) [compound 799274],24

# Same assay, conditions: Hep3B cells, electroporation with 10,000 nM antisense oligonucleotide, approximately 24 hours, SMAD7 mRNA by RT-PCR (RTS5062), relative to untreated control cells
row,Substance,% Inhibition [%]
1,799983 (k[5mC]*kA*kT*d[5mC]*dA*d[5mC]*d[5mC]*dA*d[5mC]*dG*d[5mC]*d[5mC]*dT*k[5mC]*kG*k[5mC]; antisense) [compound 799983],15
2,800021 (kG*kG*k[5mC]*d[5mC]*dT*d[5mC]*dT*d[5mC]*dG*d[5mC]*dT*dG*dA*kT*kA*kG; antisense) [compound 800021],0
3,799890 (antisense k[5mC]*kA*kT*dT*dA*dA*dG*d[5mC]*d[5mC]*dA*dA*dT*dT*kT*kT*k[5mC]) [compound 799890],41
4,799889 (antisense kA*kA*kA*dA*dG*dG*dA*d[5mC]*dA*dA*dA*dA*d[5mC]*k[5mC]*k[5mC]*k[5mC]) [compound 799889],45
5,830017 (antisense kA*kG*kG*d[5mC]*dG*dG*dA*dA*dG*dG*dA*d[5mC]*dT*kT*kG*k[5mC]) [compound 830017],30
6,830033 (antisense kT*k[5mC]*k[5mC]*d[5mC]*d[5mC]*d[5mC]*dT*dT*dG*dG*dA*dA*dA*kT*kG*kG) [compound 830033],28
7,799884 (k[5mC]*kT*k[5mC]*d[5mC]*dA*dG*dT*dT*dT*d[5mC]*dT*dA*dG*kA*kG*kG; antisense) [compound 799884],0
8,790515 (k[5mC]*kG*kT*d[5mC]*dA*dG*d[5mC]*dT*dG*dG*dA*dT*dG*k[5mC]*k[5mC]*kG; antisense) [compound 790515],26
9,799968 (k[5mC]*kT*kG*d[5mC]*dG*dA*dG*dT*dT*dA*dA*dT*d[5mC]*kA*kG*kA; antisense) [compound 799968],27

# Same assay, conditions: Hep3B cells, electroporation with 10,000 nM antisense oligonucleotide, approximately 24 hours, primer probe set RTS5062, relative to untreated control cells
Substance,% inhibition of SMAD7 mRNA expression [%],% Inhibition [%]
799124 (antisense k[5mC]*k[5mC]*kG*d[5mC]*dT*dT*dG*d[5mC]*dT*dG*dG*d[5mC]*d[5mC]*kT*kA*kA) [compound 799124],17,
798971 (antisense kG*kG*kT*dG*dT*d[5mC]*d[5mC]*dT*dG*d[5mC]*d[5mC]*dG*dA*kT*k[5mC]*kA) [compound 798971],53,
799036 (kA*kG*k[5mC]*d[5mC]*dG*d[5mC]*d[5mC]*dA*dG*d[5mC]*dT*dT*dG*k[5mC]*k[5mC]*k[5mC]; antisense) [compound 799036],,8
799058 (antisense kA*kG*k[5mC]*dA*dG*dG*d[5mC]*dT*d[5mC]*dG*d[5mC]*dT*dG*k[5mC]*kT*k[5mC]) [compound 799058],,0
799226 (kA*kA*kA*dA*d[5mC]*dA*d[5mC]*d[5mC]*dA*dA*dT*d[5mC]*dT*kT*kG*kT; antisense) [compound 799226],,15
798742 (antisense k[5mC]*kT*k[5mC]*d[5mC]*dT*dT*d[5mC]*dA*dG*dT*dT*dT*d[5mC]*kT*kT*kG) [compound 798742],30,
790545 (kA*kA*kA*dG*dA*dG*dT*dT*dT*dG*d[5mC]*dA*dT*kG*kA*kA; antisense) [compound 790545],,24
798997 (antisense kG*k[5mC]*kA*d[5mC]*dA*d[5mC]*dT*d[5mC]*dA*d[5mC]*dA*d[5mC]*dT*k[5mC]*kA*k[5mC]) [compound 798997],,12
799021 (kG*kG*kA*d[5mC]*dT*dG*d[5mC]*dA*dA*dA*d[5mC]*d[5mC]*dT*k[5mC]*kT*k[5mC]; antisense) [compound 799021],,62
798956 (antisense k[5mC]*kT*kT*dT*dT*d[5mC]*dA*dT*dA*dA*dG*d[5mC]*dT*kA*kT*kT) [compound 798956],,22
799162 (antisense kT*kA*kT*d[5mC]*dA*dT*dA*d[5mC]*dG*dA*dG*dT*dG*kT*kA*kT) [compound 799162],,36
799090 (antisense kG*kT*kG*dA*dG*d[5mC]*dA*dA*dT*dA*d[5mC]*dT*dG*kT*kG*kA) [compound 799090],49,

# Same assay, conditions: Hep3B cells, electroporation, 10,000 nM antisense oligonucleotide, approximately 24 hours, RTS5062, relative to untreated control cells
row,Substance,% inhibition of SMAD7 mRNA expression [%]
1,799814 (antisense k[5mC]*k[5mC]*kT*d[5mC]*dA*d[5mC]*dT*dT*dA*dG*d[5mC]*d[5mC]*dT*kG*k[5mC]*kA) [compound 799814],0
2,799635 (kA*k[5mC]*kA*dG*dA*d[5mC]*dT*dG*d[5mC]*d[5mC]*dA*dA*dA*kT*k[5mC]*kA; antisense) [compound 799635],28
3,799301 (antisense k[5mC]*k[5mC]*kA*d[5mC]*dA*d[5mC]*dA*dT*dT*d[5mC]*d[5mC]*dA*dA*kA*kA*kG) [compound 799301],37
4,799641 (k[5mC]*kA*kT*d[5mC]*dA*dG*dA*d[5mC]*d[5mC]*dT*d[5mC]*dT*d[5mC]*k[5mC]*k[5mC]*kA; antisense) [compound 799641],33
5,799736 (antisense kT*kT*k[5mC]*dT*dA*d[5mC]*dA*d[5mC]*d[5mC]*dT*dT*dT*dT*kA*kA*kG) [compound 799736],56
6,799305 (antisense k[5mC]*kA*kT*dG*dA*dA*dA*dG*dA*d[5mC]*dA*dA*dA*k[5mC]*k[5mC]*kA) [compound 799305],0

# Same assay, conditions: SMAD7 mRNA, Hep3B cells, 10,000 nM antisense oligonucleotide, electroporation, approximately 24 hours, primer probe set RTS5062, relative to untreated control cells
row,Substance,% Inhibition [%]
1,772809 (k[5mC]*k[5mC]*kT*dA*dA*dA*d[5mC]*dT*dG*dA*dG*d[5mC]*d[5mC]*k[5mC]*k[5mC]*kA; antisense) [compound 772809],48
2,772738 (kA*k[5mC]*k[5mC]*dA*dG*dT*dT*dG*dG*dT*dT*dT*dG*kA*kG*kA; antisense) [compound 772738],16
3,829746 (antisense k[5mC]*k[5mC]*kG*dG*dG*d[5mC]*dG*d[5mC]*dA*d[5mC]*dG*dG*d[5mC]*kT*k[5mC]*k[5mC]) [compound 829746],46

# Same assay, conditions: SMAD7 mRNA, Hep3B cells, electroporation with 10,000 nM antisense oligonucleotide, approximately 24 hours, primer probe set RTS5062, relative to untreated control cells
row,Substance,% Inhibition [%]
1,830001 (kG*k[5mC]*k[5mC]*d[5mC]*dA*dA*d[5mC]*dT*dG*dT*dT*dT*dG*kT*k[5mC]*kT; antisense) [compound 830001],24
2,829929 (kA*k[5mC]*k[5mC]*dA*dA*dT*d[5mC]*dT*dT*dG*dT*dG*dT*kT*kT*kA; antisense) [compound 829929],19

# Source: patent US10517889B2, “Modulators of SMAD7 expression” (Ionis Pharmaceuticals, Inc., priority 2017, dated 2019)
